# Literature values in patent US20250255843A1, “COMPOSITIONS COMPRISING CYSTEINE PRODRUGS AND METHODS USING THEREOF” (Nature's Fusions, LLC, priority 2022, published 2025).
# Assays:
# [1] = cell membrane
# [2] = in vivo
# oxidative damage = conditions: relative to NAC
# [3] = oral; metabolized in liver and kidney
# [4] = more stable than cysteine
smiles,measurement,setting,value
"CCOC(=O)[C@H](CS)NC(C)=O [NACET, N-acetyl L-cysteine ethyl ester]",increase of plasma GSH,plasma GSH; lower than 8 g/day doses,250%
same,membrane penetration,[1],cell-permeable
same,bioavailability,[2],60-80%
same,"protective agent against oxidative damage, concentration lower than that of NAC",oxidative damage,5-10 times
"CC(=O)N[C@@H](CS)C(=O)O [NAC, N-acetyl L-cysteine]",detectability in plasma,[3],almost undetectable in plasma
same,stability relative to cysteine,[4],about 10 times
same,increase of plasma,plasma GSH; medium to high doses (up to 8 g/day),5-20%
same,membrane penetration,[1],poorly membrane penetrable
same,bioavailability,[2],4-6%
